This is an account of results in PubChem BioAssay (NCI).

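Assay format: 96-well plates, 48-hour exposure. TGI: concentration producing complete growth inhibition.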 Where only a bound is given, the exact number is not on record here.

Some test systems named below: UO-31 renal; UACC-257 melanoma; OVCAR-4 ovarian; OVCAR-8 ovarian; SK-MEL-5 melanoma; SK-OV-3 ovarian; HCT-116 colon; OVCAR-3 ovarian; SW-620 colon; A498 renal.
Common to all, as to test: growth of human tumour cells (NCI), 48 h

For `COc1ccc2nc(-c3ccc(OCc4ccccc4)cc3)ccc2c1`, the TGI with UO-31 renal, with UACC-257 melanoma, in the test on OVCAR-4 ovarian, in the test with OVCAR-8 ovarian, in the test on SK-MEL-5 melanoma and in the test on SK-OV-3 ovarian was more than 100 µM throughout. Further, the TGI in the test on HCT-116 colon, in the test on OVCAR-3 ovarian and in the test with SW-620 colon was more than 100 µM in each case.
For the molecule `COc1ccc(C2C(Cl)C(=O)N2NC(=O)c2ccc(NC(C)=O)cc2)cc1` (centres undefined), the TGI in the test with UO-31 renal, in the test on UACC-257 melanoma, in the test on OVCAR-4 ovarian, in the test on OVCAR-8 ovarian, in the test on SK-MEL-5 melanoma and in the test with SK-OV-3 ovarian was more than 100 µM each time. The TGI in the test with A498 renal, with HCT-116 colon, in the test on OVCAR-3 ovarian and in the test on SW-620 colon was more than 100 µM each time.
With `COC1(C)CC2N(C(=O)c3ccccc3)N=C(c3ccccc3)CC2(C)O1` (centres undefined), the TGI in the test on UO-31 renal, in the test on UACC-257 melanoma, with OVCAR-4 ovarian, in the test with OVCAR-8 ovarian, in the test on SK-MEL-5 melanoma and with SK-OV-3 ovarian was more than 100 µM in each case. Further, the TGI in the test with A498 renal, in the test on HCT-116 colon, in the test on OVCAR-3 ovarian and in the test on SW-620 colon was more than 100 µM in each case.
For `Cc1c(/C=N\NC(=S)N2CCN(C(=S)N/N=C\c3c(C)n(C)n(-c4ccccc4)c3=O)CC2)c(=O)n(-c2ccccc2)n1C`, the TGI is more than 100 µM in the test on UO-31 renal; 97.3 µM in the test on UACC-257 melanoma; more than 100 µM in the test on OVCAR-4 ovarian; more than 100 µM in the test with SK-MEL-5 melanoma; more than 100 µM in the test on SK-OV-3 ovarian; more than 100 µM with A498 renal. The TGI in the test with HCT-116 colon, in the test with OVCAR-3 ovarian and in the test with SW-620 colon was more than 100 µM throughout.
`O=C1O[C@@H](c2ccccc2)C[C@@H]1CN1CCOCC1`: the TGI in the test on UO-31 renal, in the test with UACC-257 melanoma, in the test with OVCAR-4 ovarian, in the test on OVCAR-8 ovarian, in the test on SK-MEL-5 melanoma and in the test with SK-OV-3 ovarian was more than 100 µM throughout. The TGI in the test on A498 renal, with OVCAR-3 ovarian and in the test with SW-620 colon was more than 100 µM throughout.
On to `N#CCCN(c1ccc(C=Nc2cccc([N+](=O)[O-])c2)cc1)S(=O)(=O)c1ccccc1`, for which the TGI in the test with UO-31 renal, in the test on UACC-257 melanoma, in the test on OVCAR-4 ovarian, in the test on OVCAR-8 ovarian, in the test with SK-OV-3 ovarian and in the test with HCT-116 colon was more than 100 µM throughout. Moreover, the TGI in the test on OVCAR-3 ovarian and in the test on SW-620 colon was more than 100 µM in each case.
Take `O=C1CC2(C[C@@H]3CCCCCCCCC[C@@H](C3)C2)N1` (some centres undefined): the TGI in the test on UO-31 renal came out at 27.8 µM; in the test with UACC-257 melanoma, 25.1 µM; in the test on OVCAR-4 ovarian, 36.3 µM; in the test with OVCAR-8 ovarian, 33.5 µM; with SK-MEL-5 melanoma, 30.6 µM; with SK-OV-3 ovarian, 28.4 µM. Also, the TGI in the test on A498 renal stood at 30.9 µM; in the test on HCT-116 colon, 33.6 µM; with SW-620 colon it was 33.8 µM.
As to `COC(=O)c1cc(CC(C)C)c2c(c1)[nH]c1ccccc12`, the TGI in the test with UO-31 renal, in the test on OVCAR-4 ovarian, in the test with OVCAR-8 ovarian, in the test on SK-MEL-5 melanoma, in the test with SK-OV-3 ovarian and in the test on A498 renal was more than 100 µM in each case. The TGI in the test on HCT-116 colon, with OVCAR-3 ovarian and in the test with SW-620 colon was more than 100 µM in each case.
In the case of `CCOC(=O)C(OCC1CC=CCC1)Sc1ccccc1` (centres undefined), the TGI in the test on UO-31 renal, in the test on UACC-257 melanoma, with OVCAR-8 ovarian, in the test with SK-MEL-5 melanoma, with SK-OV-3 ovarian and in the test on A498 renal was more than 100 µM in each case. For the same molecule, the TGI in the test with HCT-116 colon, in the test on OVCAR-3 ovarian and in the test on SW-620 colon was more than 100 µM throughout.
Take `CCSc1nnc(CSc2nc(-c3ccccc3)c(-c3ccccc3)[nH]2)n1-c1ccccc1`: the TGI in the test with UO-31 renal came to 33 µM; in the test with UACC-257 melanoma, 33.6 µM; in the test on OVCAR-8 ovarian, 51.9 µM; in the test on SK-MEL-5 melanoma it was 30.9 µM; with SK-OV-3 ovarian, 60.8 µM; in the test on A498 renal, 34.6 µM. Moreover, the TGI in the test on HCT-116 colon came out at 36.2 µM; in the test with OVCAR-3 ovarian, 35.2 µM; in the test on SW-620 colon it was 30.2 µM.
Consider `CCOC(=O)C1=C(C)N(c2ccccc2)C2=C(C(=O)N(c3ccccc3)C2c2ccccc2)C1c1ccccc1` (centres undefined), for which the TGI in the test on UO-31 renal, in the test with UACC-257 melanoma, in the test with OVCAR-4 ovarian, with OVCAR-8 ovarian, with SK-MEL-5 melanoma and with SK-OV-3 ovarian was more than 100 µM each time. The TGI in the test on HCT-116 colon, with OVCAR-3 ovarian and with SW-620 colon was more than 100 µM throughout.
Take `COc1ccc(/C(=C/n2ccnc2)C(=O)c2ccc(OC)c(OC)c2)cc1`: the TGI in the test with UO-31 renal, in the test with UACC-257 melanoma, in the test with OVCAR-4 ovarian, with OVCAR-8 ovarian, in the test with SK-MEL-5 melanoma and in the test with A498 renal was more than 100 µM each time. In addition, the TGI in the test with HCT-116 colon, in the test on OVCAR-3 ovarian and in the test on SW-620 colon was more than 100 µM each time.
